Like-named read-outs stand apart in the source and are kept apart here.
Key:
[1] = either alone or in the presence of a statin; cited from earlier work
Caco-2 cells = experiment: Cholesterol absorption inhibition assay (in vitro), [14C] cholesterol mixed micelles; type: cell-based; details: Homo sapiens, 24 hours, read-out: cholesterol absorption inhibitory activity; for inhibition at 12.5 µM: concentration of 12.5 μM; for inhibition at 10 µM: concentration of 10 μM
Method in brief: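 Caco-2 cells cultured 2 weeks, then incubated 24 h at 37° C with [14C] cholesterol mixed micelles (oleate, phosphatidylcholine, taurocholate) plus compound at 0.5 to 25 μM final. Lipids extracted, cholesteryl ester separated by TLC and quantified by imaging plate; inhibition as background-corrected percentage of solvent control.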

[2] = system: hamsters fed a high cholesterol diet; experiment: Measurement of lipid lowering effect in hamsters fed a high cholesterol diet; type: in vivo, Male Golden Syrian hamsters; details: Mesocricetus auratus, po, 168 h, gavage once daily, 7 days
Method in brief: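 Male Golden Syrian hamsters (6/group) on 0.5% cholesterol diet, dosed by gavage once daily in corn oil at 0.01 to 10 mg/kg; serum and liver sampled 4 h after last dose. TC, TG and LDL-C measured enzymatically; effects expressed as % suppression versus control and normal-diet groups.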

[3] = read-out: liver TC lowering effect (suppression rate of an increase in liver TC concentration)
[4] = read-out: serum TG lowering effect (serum TG lowering rate)
[5] = read-out: serum LDL-C lowering effect (suppression rate of an increase in serum LDL-C concentration)
[6] = read-out: serum TC lowering effect (suppression rate of an increase in serum TC concentration)

Structure (SMILES)	inhibition at 12.5 µM (Caco-2 cells) [%]	inhibition at 10 µM (Caco-2 cells) [%]	inhibition in vivo at 0.1 mg/kg [2, 4] [%]	also measured
O=C1[C@H](CC[C@H](O)c2ccc(F)cc2)[C@@H](c2ccc(O)cc2)N1c1ccc(F)cc1 [Ezetimibe, (3R,4S)-3-[(3S)-3-(4-fluorophenyl)-3-hydroxypropyl]-1-(4-fluorophenyl)-4-(4-hydroxyphenyl)azetidin-2-one]	–	–	–	LDL cholesterol-lowering effect [1]: 15-20%
O=C1[C@H](SC[C@H](O)c2ccc(Cl)cc2)[C@@H](c2ccc(O)cc2)N1c1ccc(-c2ccc(Cl)nc2)cc1 [Example 94, (3R,4R)-3-[(2R)-2-(4-chlorophenyl)-2-hydroxyethylthio]-1-[4-(6-chloropyridin-3-yl)phenyl]-4-(4-hydroxyphenyl)azetidin-2-one]	≥ 60	–	–	inhibition in vivo at 0.1 mg/kg [2, 3]: ≥ 50%
O=C1[C@H](SCCc2ccc(F)cc2)[C@@H](c2ccc(O)cc2)N1c1ccc(-c2cccnc2)cc1 [Example 5, (3R,4R)-3-[2-(4-fluorophenyl)ethylthio]-4-(4-hydroxyphenyl)-1-[4-(pyridin-3-yl)phenyl]azetidin-2-one]	≥ 60	≥ 50	≥ 20	–
Cc1ccncc1-c1ccc(N2C(=O)[C@H](SC[C@H](O)c3ccc(F)cc3)[C@H]2c2ccc(O)cc2)cc1 [Example 8, (3R,4R)-3-[(2R)-2-(4-fluorophenyl)-2-hydroxyethylthio]-4-(4-hydroxyphenyl)-1-[4-(4-methylpyridin-3-yl)phenyl]azetidin-2-one]	–	≥ 50	≥ 20	–
O=C1[C@H](SC[C@H](O)c2ccc(F)cc2)[C@@H](c2ccc(O)cc2)N1c1ccc(-c2ncc(F)cc2F)cc1 [Example 34, (3R,4R)-3-[(2R)-2-(4-fluorophenyl)-2-hydroxyethylthio]-1-[4-(3,5-difluoropyridin-2-yl)phenyl]-4-(4-hydroxyphenyl)azetidin-2-one]	–	≥ 50	≥ 20	–
O=C1[C@H](SC[C@H](O)c2ccc(F)cc2)[C@@H](c2ccc(O)cc2)N1c1ccc(-c2ccncc2Cl)cc1 [Example 12, (3R,4R)-3-[(2R)-2-(4-fluorophenyl)-2-hydroxyethylthio]-1-[4-(3-chloropyridin-4-yl)phenyl]-4-(4-hydroxyphenyl)azetidin-2-one]	–	≥ 50	–	inhibition in vivo at 0.1 mg/kg [2, 5]: ≥ 50%
O=C1[C@H](SC[C@H](O)c2ccc(Cl)cc2)[C@@H](c2ccc(O)cc2)N1c1ccc(-c2cncc(Cl)c2)cc1 [Example 87, (3R,4R)-3-[(2R)-2-(4-chlorophenyl)-2-hydroxyethylthio]-1-[4-(5-chloropyridin-3-yl)phenyl]-4-(4-hydroxyphenyl)azetidin-2-one]	≥ 60	–	–	inhibition in vivo at 0.01 mg/kg [2, 3]: ≥ 30%; inhibition in vivo at 0.01 mg/kg [2, 5]: ≥ 30%; inhibition in vivo at 0.01 mg/kg [2, 6]: ≥ 30%
COc1cncc(-c2ccc(N3C(=O)[C@H](SC[C@H](O)c4ccc(F)cc4)[C@H]3c3ccc(O)cc3)cc2)c1 [Example 50, (3R,4R)-3-[(2R)-2-(4-fluorophenyl)-2-hydroxyethylthio]-4-(4-hydroxyphenyl)-1-[4-(5-methoxypyridin-3-yl)phenyl]azetidin-2-one]	–	≥ 50	≥ 20	inhibition in vivo at 0.1 mg/kg [2, 6]: ≥ 50%
